From patent publication US20030139469A1, “Use of inhibitors of soluble epoxide hydrolase to inhibit vascular smooth muscle cell proliferation” (THE REGENTS OF THE UNIVERSITY OF CALIFORNIA, priority 2002, published 2003)

Tests used:
[1] = test system: human VSM cells; assay: [3H]thymidine incorporation into DNA, human VSM cells; format: cell-based; details: for inhibition of DNA synthesis ([3H]thymidine incorporation): CDU 1.0 to 20 μM
Description: Human VSM cells were grown to 80-90% confluence and serum-starved (except where indicated) for 1 day.
FIG. 1a. Immediately following PDGF-BB (30 ng/ml) stimulation, CDU or DMSO vehicle (as a control, indicated on chart as “cont”) was added at the concentrations indicated. After 18 h, thymidine incorporation into DNA was assessed as described in Example 1.
FIG. 1b. Human VSM cells grown and challenged as in FIG. 1a, but the cells were stimulated with 10% serum rather than with PDGF-BB.
Human VSM cells were grown to 80-90% confluence and serum-starved as in FIG. 1. PDGF-BB (30 ng/ml) was added to all but control wells, followed immediately by the addition of mixed EETs and/or CDU at the concentrations indicated of total EETs. [^3H]Thymidine was added for the last 6 h of incubation, and its incorporation into DNA was assessed as described in Materials and Methods. Error bars represent SD; *p<0.05 compared to PDGF alone. Data shown are representative of two independent experiments.
Human VSM cells were grown to 80-90% confluence and serum-starved as in FIG. 1. PDGF-BB (30 ng/ml) was added to all but control wells and, at the times indicated after PDGF addition, CDU (10 μM) was added. At time=0, CDU and PDGF were added simultaneously. [^3H]Thymidine was added for the last 6 h of incubation and its incorporation into DNA was assessed as described in Example 1. Error bars represent SD; *p<0.05 compared to PDGF alone. Data shown are representative of three independent experiments.
Cell Culture. Human aortic smooth muscle cells were obtained from Clonetics (San Diego Calif.) at passage 3 and were maintained in MCBD 131 media supplemented with 2.5% FBS, 5 mg/L bovine insulin, 2 ug/L human recombinant EGF, 1 ug/L human recombinant PDGF-BB (“PDGF” is platelet derived growth factor, which is composed of a dimer of two chains, the A chain and the B chain, “PDGF-BB is a 24.3 kD homodimer of two B chains), 100 u/ml of penicillin, 100 u/ml streptomycin, and 2.5 ug/ml amphotericin B. The cells were growth-arrested by placing them in quiescence medium containing MCDB 131 medium, 20 mM HEPES (pH 7.4), 5 mg/ml transferrin, 0.5 mg/ml BSA, 50 U/ml penicillin, 50 U/ml streptomycin, and 2.5 ug/ml amphotericin B. Quiescence medium was changed daily for 1-2 days before each experiment. HL-60 cells were obtained from ATCC or from D. Hyde (UC Davis). HL-60 cells were cultured at cell densities between 2×10^5 and 8×10^5 cells/mL in RPMI-1640 (Mediatech) supplemented with 10% fetal calf serum.
Proliferation Assays. [^3H]thymidine incorporation assays were performed. […] At the indicated times, the number of cells in the plate was calculated by subjecting the cells to trypsinization and the cell density quantitated by light microscopy using a hemocytometer.

[2] = test system: Met-1 breast tumor cells; assay: Met-1 breast tumor cell proliferation; format: cell-based; details: up to 20 μM
[3] = test system: cyclin D1; assay: Western blot cyclin D1 in VSM cells; format: cell-based, human; details: 10 μM, PDGF-BB, 6 to 18 h, vs DMSO vehicle, FIG. 7
Description: Human VSM cells were grown to 80-90% confluence and serum-starved as in FIG. 1. […] Data shown are representative of at least two independent experiments. Western Blots. After treatment with appropriate compounds for the indicated times, cells were lysed, protein concentrations were determined by the Lowry method, and equal protein quantities were electrophoresed and Western blotted.

[4] = test system: HT-29 colon cancer cells; assay: MTT assay HT-29; format: cell-based; details: up to 40 μM
[5] = test system: HTB-30 breast cancer cells; assay: MTT assay HTB-30; format: cell-based; details: up to 40 μM
[6] = test system: VSM cells; assay: thymidine uptake into VSM cells; format: cell-based, human; details: 12 μM CDU vs DMSO vehicle, seconds to minutes, FIG. 1e
Description: FIG. 1e. CDU at the indicated concentrations was added to non-serum-starved cells and uptake of thymidine into the cells was assessed at the indicated times after its addition as described in Example 1. Error bars represent SD; *p<0.05 compared to (for FIGS. 1a and 1d) PDGF alone or (for FIG. 1b) serum alone or (for FIG. 1e) DMSO. Data shown are representative of at least two independent experiments.
Thymidine Uptake. To quantify thymidine uptake, 1.73×10^4 cells were distributed per well in a 24-well plate. […] The media was then adjusted to […] ^3H-methyl-thymidine (1 mCi/mL, 25 Ci/mmol, Amersham-Pharmacia). At the indicated times, medium was aspirated, the cells were washed three times with ice-cold PBS, and then incubated in 500 μL 1 M NaOH for 20 min. The mixture was neutralized with 0.5 mL 1 M HCl and diluted into scintillation fluid for liquid scintillation counting.

Structure (SMILES): CCCCCCCCCCCCNC(=O)NC1CCCCC1 [CDU, 1-cyclohexyl-3-dodecyl urea]
- time of CDU addition after PDGF with most profound inhibition ([1]; 10 μM CDU, PDGF-BB 30 ng/ml, FIG. 5): 4 h
- inhibition of DNA synthesis ([3H]thymidine incorporation) ([1]; 10% serum stimulated, FIG. 1b): dose-dependent inhibition of DNA synthesis
- inhibition of DNA synthesis ([3H]thymidine incorporation) ([1]; PDGF-BB (30 ng/ml) stimulated, 18 h, FIG. 1a): dose-dependent inhibition of DNA synthesis
- PDGF-stimulated [3H]thymidine incorporation ([1]; PDGF-BB, EETs 5 to 10 μM total, CDU 2.5 and 10 μM, separately or together, FIG. 3): inhibition of PDGF-stimulated [^3H]thymidine incorporation
- effect on Met-1 cells [2]: lack of effect
- induction of cyclin D1 levels [3]: profoundly decreased induction
- toxicity, MTT assay [4]: no toxicity observed
- toxicity, MTT assay [5]: no toxicity observed
- cellular uptake of thymidine [6]: occurs to a similar extent
